Data as given in article PMC4792582, “Effect of ceritinib (LDK378) on enhancement of chemotherapeutic agents in ABCB1 and ABCG2 overexpressing cells in vitro and in vivo” (Oncotarget, 2015).

How the values were obtained:
ABCG2 (BCRP/MXR) [1] = target: T1, ABCG2 (BCRP/MXR) (Homo sapiens, UniProt Q9UNQ0); experiment: competition of […]-IAAP photoaffinity labeling in membranes; also effect on vanadate-sensitive ATPase activity; assay type: binding; design: Crude membranes from High Five insect cells expressing ABCG2
T1 sequence (Q9UNQ0 1-655): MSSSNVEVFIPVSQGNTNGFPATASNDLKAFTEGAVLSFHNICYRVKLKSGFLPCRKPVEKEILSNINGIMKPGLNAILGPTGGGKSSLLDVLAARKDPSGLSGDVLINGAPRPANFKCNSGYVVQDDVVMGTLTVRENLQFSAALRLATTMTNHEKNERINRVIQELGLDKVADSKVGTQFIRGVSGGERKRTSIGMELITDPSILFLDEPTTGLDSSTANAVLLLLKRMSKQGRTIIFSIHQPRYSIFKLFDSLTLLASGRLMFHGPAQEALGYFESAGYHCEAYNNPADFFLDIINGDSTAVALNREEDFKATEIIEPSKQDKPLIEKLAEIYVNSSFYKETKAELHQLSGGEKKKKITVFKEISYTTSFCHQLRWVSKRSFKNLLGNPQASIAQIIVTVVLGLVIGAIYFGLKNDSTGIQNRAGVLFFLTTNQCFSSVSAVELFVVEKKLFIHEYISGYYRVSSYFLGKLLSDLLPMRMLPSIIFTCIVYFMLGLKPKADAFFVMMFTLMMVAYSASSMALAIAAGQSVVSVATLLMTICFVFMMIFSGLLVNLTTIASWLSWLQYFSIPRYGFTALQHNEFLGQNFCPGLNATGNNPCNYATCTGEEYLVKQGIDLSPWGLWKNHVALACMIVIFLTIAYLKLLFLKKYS

ABCG2 (BCRP/MXR) [2] = target: T1, ABCG2 (BCRP/MXR); experiment: reversal of mitoxantrone resistance in ABCG2-transfected versus mock HEK293 cells (MTT), […]; assay type: cell-based; design: HEK293/ABCG2-R2 stably transfected cells

SMILES | competition of [125I]-IAAP photoaffinity labeling in membranes; also effect on v (ABCG2 (BCRP/MXR) [1]) | (fold-reversal) / HEK293/ABCB1 (ABCG2 (BCRP/MXR) [2])
Cc1cc(Nc2ncc(Cl)c(Nc3ccccc3S(=O)(=O)C(C)C)n2)c(OC(C)C)cc1C1CCNCC1 [Ceritinib, 5-chloro-N2-(2-isopropoxy-5-methyl-4-(piperidin-4-yl)phenyl)-N4-(2-(isopropylsulfonyl)phenyl)pyrimidine-2,4-diamine] | ceritinib binds with high affinity to both the ABCB1 and ABCG2 substrate-binding sites | 
COc1ccc2c3c([nH]c2c1)[C@H](C=C(C)C)N1C(=O)[C@@H]2CCCN2C(=O)[C@@H]1C3 [Fumitremorgin C] |  | 26.81 fold-reversal
